We go through eight molecules from paper PMC6102643, “Different Benzodiazepines Bind with Distinct Binding Modes to GABAA Receptors” (ACS Chemical Biology, 2018).

Assay [1] deals with α2-containing GABAA receptors. Further details: method as in PMID 20727364. Particulars: versus SH-053-2′F-S-CH3; cited from earlier work.
Assay [2] concerns GABAA receptors. On the set-up: method as in PMID 17392731, PMID 20727364. Particulars: cited from earlier work.
For assay [3], the system named is α1-, α3-, and α5-containing GABAA receptors. Further details: method as in PMID 20727364. As to conditions: versus SH-053-2′F-S-CH3; cited from earlier work.
For assay [4], the target named is T1, recombinant rat GABAA receptor α5β3γ2 (Rattus norvegicus, UniProt P18508+P19969).
T1 construct: expressed in transfected cells; host or cells: HEK-293
T1 sequence (P19969 32-464 limits assumed): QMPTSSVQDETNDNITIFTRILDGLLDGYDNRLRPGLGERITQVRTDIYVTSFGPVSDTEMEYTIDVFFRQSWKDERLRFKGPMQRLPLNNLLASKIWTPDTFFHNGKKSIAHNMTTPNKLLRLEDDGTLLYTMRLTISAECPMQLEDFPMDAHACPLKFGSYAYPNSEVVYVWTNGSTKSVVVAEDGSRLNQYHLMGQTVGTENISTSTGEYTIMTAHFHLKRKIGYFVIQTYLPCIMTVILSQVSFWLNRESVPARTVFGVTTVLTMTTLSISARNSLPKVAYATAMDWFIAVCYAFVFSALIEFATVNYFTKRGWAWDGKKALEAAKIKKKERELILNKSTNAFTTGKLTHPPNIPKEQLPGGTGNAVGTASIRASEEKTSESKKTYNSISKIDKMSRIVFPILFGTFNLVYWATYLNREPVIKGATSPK
T1 sequence (P63079 26-473 partner): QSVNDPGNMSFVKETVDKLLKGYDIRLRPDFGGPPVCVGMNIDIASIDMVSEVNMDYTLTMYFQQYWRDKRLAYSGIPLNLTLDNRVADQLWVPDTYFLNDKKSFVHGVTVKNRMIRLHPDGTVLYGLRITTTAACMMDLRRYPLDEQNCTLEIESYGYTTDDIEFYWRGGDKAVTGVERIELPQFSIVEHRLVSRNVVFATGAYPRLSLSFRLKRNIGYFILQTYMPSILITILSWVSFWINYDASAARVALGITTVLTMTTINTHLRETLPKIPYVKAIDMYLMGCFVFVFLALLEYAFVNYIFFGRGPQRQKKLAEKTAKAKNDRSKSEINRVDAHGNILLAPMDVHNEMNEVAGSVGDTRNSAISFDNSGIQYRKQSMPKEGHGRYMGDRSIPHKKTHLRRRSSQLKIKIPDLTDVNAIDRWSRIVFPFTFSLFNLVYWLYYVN
T1 sequence (P18508 39-466): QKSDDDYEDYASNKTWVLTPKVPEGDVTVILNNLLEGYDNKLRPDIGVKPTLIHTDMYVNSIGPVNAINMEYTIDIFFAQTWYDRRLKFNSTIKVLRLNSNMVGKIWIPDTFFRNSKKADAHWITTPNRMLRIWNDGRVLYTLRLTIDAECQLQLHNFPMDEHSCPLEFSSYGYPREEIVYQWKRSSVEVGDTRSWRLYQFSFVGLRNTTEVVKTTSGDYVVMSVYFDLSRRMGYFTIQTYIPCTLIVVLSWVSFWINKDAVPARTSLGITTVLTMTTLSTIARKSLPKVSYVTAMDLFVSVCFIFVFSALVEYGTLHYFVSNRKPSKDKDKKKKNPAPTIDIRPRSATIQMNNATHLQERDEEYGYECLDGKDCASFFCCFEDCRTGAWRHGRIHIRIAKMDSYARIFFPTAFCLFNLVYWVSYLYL
The experiment in a line: [3H]flunitrazepam radioligand displacement, α5β3γ2. As to conditions: for preference / selectivity for α5-containing receptors: binding affinity at α5 versus other receptor subtypes. The format is binding. As to the method:
(§1) To exclude a binding behavior unique to α2-containing receptors, we also performed similar radioligand displacement studies on other receptor combinations such as recombinantly expressed rat GABAA receptor subtypes α1β3γ2, α3β3γ2, and α5β3γ2 (see Figure S2).
(§2) Radioligand displacement assays were performed in HEK-293 cells transfected with recombinant rat αxβ3γ2 receptors (x = 1, 2, 3, or 5) using 2 nM [^3H]flunitrazepam and 1 nM to 10 μM investigated compound as described previously.[20] Two-electrode voltage clamp recordings were performed on X. laevis oocytes treated with mRNA for the desired subunit combination at a GABA concentration eliciting 3% of the maximum current.[21]
(§3) Inhibition of [3H]flunitrazepam binding to recombinant α1β3γ2, α2β3γ2, α3β3γ2, α5β3γ2 GABA A
(§4) receptors subtypes. Membranes from HEK 293 cells transfected with GABAA receptor
(§5) subunit combination, (α1β3γ2, α2β3γ2, α3β3γ2, α5β3γ2) were incubated with 2 nM
(§6) [3H]flunitrazepam in the presence of various concentrations of GABAA -R ligands investigated.
(§7) Data shown represent mean ± SEM of three experiments performed in duplicates each. […]
A general note: Loss of bound radioactivity is the signal in a displacement assay; it reports binding, not function.

For assay [5], the system named is α1β3γ2, α3β3γ2, and α5β3γ2 GABAA receptors. The experiment in a line: Two-electrode voltage clamp recordings, other receptor combinations in oocytes. Particulars: α1β3γ2, α3β3γ2, α5β3γ2 (and α2β3γ2); Figure S3. The format is cell-based. As to the method: In addition to the analysis of α2β3γ2-containing GABAA receptors, we also performed similar electrophysiological studies of other receptor combinations such as α1β3γ2, α3β3γ2, and α5β3γ2 (see Figure S3).
as §2
A general note: In two-electrode clamp one electrode senses voltage and the other passes current.

The target in assay [6] is T2, α2β3γ2-GABAA receptors (Rattus norvegicus, UniProt P18508+P23576).
T2 construct: expressed in transfected cells; host or cells: Xenopus laevis oocytes (mRNA injected)
T2 sequence (P23576 29-451): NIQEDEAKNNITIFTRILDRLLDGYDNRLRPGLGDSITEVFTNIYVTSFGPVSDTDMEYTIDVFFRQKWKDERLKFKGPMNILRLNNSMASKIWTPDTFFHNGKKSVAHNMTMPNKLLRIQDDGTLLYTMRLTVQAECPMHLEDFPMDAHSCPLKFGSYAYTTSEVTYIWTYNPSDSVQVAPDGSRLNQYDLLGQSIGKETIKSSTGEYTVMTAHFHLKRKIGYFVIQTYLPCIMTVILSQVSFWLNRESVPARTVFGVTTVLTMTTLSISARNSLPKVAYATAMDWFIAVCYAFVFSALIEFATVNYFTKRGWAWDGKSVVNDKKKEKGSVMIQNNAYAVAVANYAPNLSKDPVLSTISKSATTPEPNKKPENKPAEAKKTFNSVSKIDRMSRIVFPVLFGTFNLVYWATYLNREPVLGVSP
T2 sequence (P63079 26-473 partner): as the sequence (P63079 26-473 partner) above
T2 sequence (P18508 39-466): as the sequence (P18508 39-466) above
The experiment in a line: Two-electrode voltage clamp recordings, α2β3γ2 in Xenopus laevis oocytes. The format is cell-based. Particulars: GABA eliciting 3% of maximum current; for activity in the oocyte assay at drug concentrations of ≤1 μM: drug ≤1 μM.
From the text: Radioligand displacement assays provide information about the binding of a compound to only a specific binding site. To exclude the possibility that compounds 2-R and 3-R bind at a site different from the [^3H]flunitrazepam binding site (and are therefore unable to compete with the radioligand), we decided to determine the efficacies of all our test compounds using two-electrode voltage clamp recordings on α2β3γ2-mRNA-treated Xenopus laevis oocytes (see Figure 5).
Figure 5 Concentration–response curves of drug-induced enhancement of GABA currents. X. laevis oocytes were treated with mRNA for α2β3γ2-GABAA receptors and studied using two-electrode voltage clamp recordings. GABA-induced currents (3% of maximum) were modulated by addition of drug. Data are means ± the standard error of the mean of three independent experiments.
as §2

The target in assay [7] is T3, recombinant rat GABAA receptor α3β3γ2 (Rattus norvegicus, UniProt P18508+P20236).
T3 construct: expressed in transfected cells; host or cells: HEK-293
T3 sequence (P20236 29-493): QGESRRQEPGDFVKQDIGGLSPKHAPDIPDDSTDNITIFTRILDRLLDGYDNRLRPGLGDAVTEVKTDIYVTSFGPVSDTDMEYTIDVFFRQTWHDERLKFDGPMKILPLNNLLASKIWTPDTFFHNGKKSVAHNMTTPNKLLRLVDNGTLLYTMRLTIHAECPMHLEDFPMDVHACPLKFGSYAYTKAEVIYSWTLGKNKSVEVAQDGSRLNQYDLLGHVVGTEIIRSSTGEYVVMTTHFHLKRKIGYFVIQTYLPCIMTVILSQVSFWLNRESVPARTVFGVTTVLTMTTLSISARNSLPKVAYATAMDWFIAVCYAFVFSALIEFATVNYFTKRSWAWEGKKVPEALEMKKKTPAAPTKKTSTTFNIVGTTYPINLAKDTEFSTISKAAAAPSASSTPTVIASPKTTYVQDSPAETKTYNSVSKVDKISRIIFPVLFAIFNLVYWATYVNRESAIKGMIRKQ
T3 sequence (P63079 26-473 partner): as the sequence (P63079 26-473 partner) above
T3 sequence (P18508 39-466): as the sequence (P18508 39-466) above
As to the kind of experiment: [3H]flunitrazepam radioligand displacement, α3β3γ2. The format is binding. As to the method: as §1, §2, §3, §4, §5, §6, §7

Assay [8] deals with T4, recombinant rat GABAA receptor α1β3γ2 (Rattus norvegicus, UniProt P18508+P62813).
T4 construct: expressed in transfected cells; host or cells: HEK-293
T4 sequence (P62813 28-455): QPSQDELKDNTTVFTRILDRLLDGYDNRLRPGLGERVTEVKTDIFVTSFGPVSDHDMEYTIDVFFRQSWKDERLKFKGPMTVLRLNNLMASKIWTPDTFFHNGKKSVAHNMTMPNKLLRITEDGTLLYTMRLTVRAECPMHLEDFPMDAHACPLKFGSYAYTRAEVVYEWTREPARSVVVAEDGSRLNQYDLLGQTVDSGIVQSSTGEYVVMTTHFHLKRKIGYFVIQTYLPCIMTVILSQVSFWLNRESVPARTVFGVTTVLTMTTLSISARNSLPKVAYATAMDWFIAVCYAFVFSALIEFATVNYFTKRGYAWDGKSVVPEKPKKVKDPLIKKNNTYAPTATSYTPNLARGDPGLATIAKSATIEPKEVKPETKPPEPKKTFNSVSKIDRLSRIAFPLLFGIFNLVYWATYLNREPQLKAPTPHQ
T4 sequence (P63079 26-473 partner): as the sequence (P63079 26-473 partner) above
T4 sequence (P18508 39-466): as the sequence (P18508 39-466) above
The experiment in a line: [3H]flunitrazepam radioligand displacement, α1β3γ2. The format is binding. As to the method: as §1, §2, §3, §4, §5, §6, §7

The target in assay [9] is T5, recombinant rat GABAA receptor α2β3γ2 (Rattus norvegicus, UniProt P18508+P23576).
T5 construct: expressed in transfected cells; host or cells: HEK-293
T5 sequence (P23576 29-451): as the sequence (P23576 29-451) above
T5 sequence (P63079 26-473 partner): as the sequence (P63079 26-473 partner) above
T5 sequence (P18508 39-466): as the sequence (P18508 39-466) above
As to the kind of experiment: [3H]flunitrazepam radioligand displacement, α2β3γ2. The format is binding. As to conditions: for displacement of [3H]flunitrazepam at α2β3γ2 (in words): 2 nM [3H]flunitrazepam, HEK-293 membranes. As to the method:
To test our predictions, we performed radioligand displacement studies and compared the potencies of our six chiral benzodiazepine ligands for the inhibition of binding of [^3H]flunitrazepam to α2β3γ2 recombinant rat GABAA receptor subtypes (see Figure 4).
Figure 4 Inhibition of binding of [^3H]flunitrazepam to recombinant α2β3γ2 GABAA receptor subtypes. Membranes from HEK-293 cells transfected with the GABAA receptor subunit combination α2β3γ2 were incubated with 2 nM [^3H]flunitrazepam in the presence of various concentrations of the six BZ site ligands. Data shown are the means ± the standard error of the mean of three independent experiments each performed in duplicate.
as §2, §3, §4, §5, §6, §7

Assay [10] has as its system recombinant rat αxβ3γ2 receptors (x = 1, 2, 3, or 5). As to the kind of experiment: [3H]flunitrazepam radioligand displacement, all receptor subtypes tested. The format is binding. As to conditions: for displacement of [3H]flunitrazepam in all receptor subtypes (in words): α1β3γ2, α2β3γ2, α3β3γ2, α5β3γ2, even at high micromolar concentrations for non-binders; for subtype selectivity of binding (in words): across α1, α2, α3, α5 subtypes. As to the method: as §1
However, we did observe differences in the potency rank order.
as §2

SMILES strings stand for the structures.

As for `C#Cc1ccc2c(c1)C(c1ccccc1F)=N[C@H](C)c1c(C(=O)OCC)ncn1-2` [SH-053-2′F-R-CH3], in assay [1], the “lower affinity compared to the S isomer, α2-containing receptors” value is 30 fold. Further, in [2], the “binding to GABAA receptors (in words)” value is given as “high affinity”. The “lower affinity compared to the S isomer, α1-, α3-, and α5-containing receptors” value in assay [3] is on record as 3–5 fold.
With `C#Cc1ccc2c(c1)C(c1ccccc1F)=N[C@@H](C)c1c(C(=O)OCC)ncn1-2` [SH-053-2′F-S-CH3], the “binding to GABAA receptors (in words)” value in [2] is listed as “high affinity”.
As usually defined, the Ki is the equilibrium dissociation constant of an inhibitor or competing ligand from its target. Regarding `CCOC(=O)c1ncn2c1[C@@H](C)N=C(c1ccccc1F)c1cc(Br)ccc1-2` [compound 1-R], the Ki amounted to 56 ± 8 nM in assay [4], 501 ± 79 nM in assay [7], 273 ± 41 nM in [8] and 253 ± 31 nM in assay [9]. In addition, the “preference / selectivity for α5-containing receptors” value in assay [4] was around 5 fold. Besides, the “modulation of GABA currents in all receptor subtypes (in words)” value (“modulation of GABA currents” for short) in [5] is reported as “positive modulation”. The “modulation of GABA-induced chloride ion flux (in words)” value in assay [6] is listed as “positive allosteric modulators”. In addition, in assay [9], the “displacement of [3H]flunitrazepam at α2β3γ2 (in words)” value (“displacement … at α2β3γ2 (in words)” for short) was “retained its potential to displace the radioligand”. Moreover, the “displacement of [3H]flunitrazepam in all receptor subtypes (in words)” value in assay [10] is reported as “potently replaced”.
In the case of `CCOC(=O)c1ncn2c1[C@H](C)N=C(c1ccccc1F)c1cc(Br)ccc1-2` [compound 1-S], the Ki in assay [4] amounted to 17 ± 5 nM; in assay [7], 136 ± 24 nM; in assay [8] it was 190 ± 55 nM; in assay [9], 67 ± 9 nM. The “preference / selectivity for α5-containing receptors” value in [4] is listed as above 4 fold. Further, the “modulation of GABA currents” value in assay [5] is “positive modulation”. For the same molecule, the “modulation of GABA-induced chloride ion flux (in words)” value in assay [6] was “positive allosteric modulators”. In addition, in assay [9], the “displacement … at α2β3γ2 (in words)” value is given as “intermediate to high binding affinities”. In addition, in [10], the “displacement of [3H]flunitrazepam in all receptor subtypes (in words)” value is “potently replaced”.
In the case of `C#Cc1ccc2c(c1)C(c1ccccc1)=N[C@H](C)c1nnc(C)n1-2` [compound 2-R], the Ki in [4], in [7], in assay [8] and in assay [9] was above 10000 nM throughout. In assay [5], the “modulation of GABA currents” value is “mainly modulatory silent”. Also, in assay [6] (drug 10 μM), the “modulation of GABA-induced currents at 10 μM” value is listed as “slight positive modulation”. Besides, the “activity in the oocyte assay at drug concentrations of ≤1 μM” value in [6] is “complete loss of activity”. Also, the “displacement … at α2β3γ2 (in words)” value in [9] is “inactive”. For the same molecule, in [10], the “displacement of [3H]flunitrazepam in all receptor subtypes (in words)” value is reported as “failed to displace”.
Regarding `C#Cc1ccc2c(c1)C(c1ccccc1)=N[C@@H](C)c1nnc(C)n1-2` [compound 2-S], the Ki is 80 ± 4 nM in [4], 656 ± 110 nM in assay [7], 663 ± 21 nM in [8] and 164 ± 15 nM in assay [9]. Moreover, the “modulation of GABA currents” value in [5] is on record as “positive modulation”. For the same molecule, the “modulation of GABA-induced chloride ion flux (in words)” value in assay [6] is reported as “positive allosteric modulators”. In addition, the “displacement … at α2β3γ2 (in words)” value in assay [9] is listed as “intermediate to high binding affinities”. In assay [10], the “subtype selectivity of binding (in words)” value was “significant higher binding affinities in α2 and α5 GABAAR subtypes than in α1 and α3 subtypes”. In addition, in assay [10], the “displacement of [3H]flunitrazepam in all receptor subtypes (in words)” value is given as “potently replaced”.
`C[C@H]1N=C(c2ccccc2)c2cc(Br)ccc2NC1=O` [compound 3-R]: the Ki in [4], in assay [7], in [8] and in assay [9] was above 10000 nM throughout. In addition, the “modulation of GABA currents” value in assay [5] was “mainly modulatory silent”. Further, in [6], the “activity in the oocyte assay at drug concentrations of ≤1 μM” value is listed as “complete loss of activity”. For the same molecule, in assay [9], the “displacement … at α2β3γ2 (in words)” value was “inactive”. Further, in [10], the “displacement of [3H]flunitrazepam in all receptor subtypes (in words)” value is recorded as “failed to displace”.
With `C[C@@H]1N=C(c2ccccc2)c2cc(Br)ccc2NC1=O` [compound 3-S], the Ki in [4] was 31 ± 5 nM; in assay [7], 102 ± 7 nM; in assay [8], 64 ± 2 nM; in assay [9], 61 ± 10 nM. Further, in assay [5], the “modulation of GABA currents” value is given as “positive modulation”. Also, the “modulation of GABA-induced chloride ion flux (in words)” value in [6] is recorded as “positive allosteric modulators”. For the same molecule, the “displacement … at α2β3γ2 (in words)” value in assay [9] is “intermediate to high binding affinities”. Further, in assay [10], the “subtype selectivity of binding (in words)” value was “low subtype selectivity”. The “displacement of [3H]flunitrazepam in all receptor subtypes (in words)” value in assay [10] is reported as “potently replaced”.
